Measurements: US8129410B2, “Benzisoxazole piperidine compounds and methods of use thereof” (Hypnion, Inc., priority 2005, dated 2012)

Test system: adult, male Wistar rats
Assay: Sleep-wakefulness monitoring (SCORE-2004, EEG/EMG) in rats after oral dosing at CT-18
Assay type: in vivo, rat
Settings: for LONGEST UNINTERRUPTED SLEEP BOUT: bout length defined in minutes; for MAXIMUM NREM SLEEP CUMULATION: cumulative nonREM defined in minutes, in min
Method: Sleep-wakefulness, locomotor activity and body temperature are monitored in male Wistar rats treated with a test compound (i.e., benzisoxazole analog) initially at a concentration of 10 mg/kg. Higher and lower doses are assayed for select compounds (e.g., as high as 45 mg/kg, and as low as necessary to establish a no-effect dose). Treatments are administered at CT-18, the peak of the activity dominated period (6 hours after lights-off), and produced soporific (sleep-inducing) effects characterized by increased non-REM sleep time, increased sleep continuity, but without evidence of REM sleep inhibition or rebound insomnia.
Sleep-wakefulness, locomotor activity and body temperature were monitored in vivo with various compounds of the invention. Adult, male Wistar rats (250 g at time of surgery, Charles River Laboratories, Wilmington Mass.) were anesthetized (2% isoflourane in medical grade oxygen) and surgically prepared with a cranial implant to permit chronic electro-encephalogram (EEG) and electromyogram (EMG) recording. Body temperature and locomotor activity were monitored via a miniature transmitter (Mini-Mitter, Bend, Oreg.) surgically placed in the abdomen. The cranial implant consisted of stainless steel screws (two frontal [+3.2 AP from bregma, ±2.0 ML] and two occipital [−6.9 AP, ±5.5 ML]) for EEG recording. Two Teflon®-coated stainless steel wires were positioned under the nuchal trapezoid muscles for EMG recording. All leads were soldered to a miniature connector prior to surgery, and gas sterilized in ethylene oxide. The implant assembly was affixed to the skull with dental acrylic. A minimum of three weeks was allowed for surgical recovery.
Each rat was permanently housed in its own individual recording cage located within separate, ventilated compartments of custom-designed stainless steel cabinets. Each cage was enhanced with a filter-top riser and low-torque swivel-commutator. Food and water were available ad libitum. A 24-hr light-dark cycle (12 hours light, 12 hours dark) was maintained throughout the study. Animals were undisturbed for at least 48 hours before and after treatments.
Sleep and wakefulness were determined using “SCORE-2004™” (Hypnion, Worcester, Mass.)—an internet-based sleep-wake and physiological monitoring system. The system monitored amplified EEG (bandpass 1-30 Hz), integrated EMG (bandpass 10-100 Hz), body temperature and non-specific locomotor activity (LMA) via telemetry, and drinking activity, continuously and simultaneously. Arousal states were classified on-line as non-REM (NREM) sleep, REM sleep, wake, or theta-dominated wake every 10 seconds. Total drinking and locomotor activity counts, and body temperature were quantitiated and recorded each minute, using EEG feature extraction and pattern-matching algorithms. […] The classification algorithm used individually-taught EEG-arousal-state templates, plus EMG criteria to differentiate REM sleep from theta-dominated wakefulness, plus behavior-dependent contextual rules (e.g., if the animal was drinking, it is awake). Drinking and locomotor activity intensity (LMA) were recorded every 10 seconds, while body temperature was recorded each minute. Locomotor activity was detected by a telemetry receiver (Mini-Mitter) beneath the cage. Telemetry measures (LMA and body temperature) were not part of the scoring algorithm; thus, sleep-scoring and telemetry data were independent measures.
Compounds were administered at CT-18, the peak of the activity-dominated period, sufficient time was allowed to view the time course of the treatment effect before lights-on (6 hours post-treatment). Compounds were suspended in sterile 0.25% or 0.5% methylcellulose (1-2 ml/kg). Treatments were administered orally as a bolus.
A parallel group study design was employed. […]

## CC(C)(CN1CCC(c2noc3ccccc23)CC1)C(=O)O [Compound 1]
0.3 mg/kg oral
  LONGEST UNINTERRUPTED SLEEP BOUT: 3.3 ± 1.8
  MAXIMUM NREM SLEEP CUMULATION: 13 ± 4
1 mg/kg oral
  LONGEST UNINTERRUPTED SLEEP BOUT: 17.2 ± 4.8
  MAXIMUM NREM SLEEP CUMULATION: 23 ± 6
3 mg/kg oral
  LONGEST UNINTERRUPTED SLEEP BOUT: 16.1 ± 2.3
  MAXIMUM NREM SLEEP CUMULATION: 21 ± 6
10 mg/kg oral
  LONGEST UNINTERRUPTED SLEEP BOUT: 15.2 ± 3.3
  MAXIMUM NREM SLEEP CUMULATION: 28 ± 5
